What was measured:
Type in all cases: cell-based
H2170 = assay: cell viability of H2170 cells, 1 and 10 uM; conditions: Homo sapiens, NCI-H2170
Experimental: [Worded in the source for another cell line; this cell line is reported under the same test.] (§1) Sorafenib (Nexavar), erlotinib (Tarceva) and Paclitaxel were kindly provided by Bayer Pharmaceuticals (Pittsburgh, Pa., USA) and Roche Pharmaceuticals (Basel, Switzerland) respectively. Okadaic acid (OA) was purchased from Cayman Chemical (Ann Arbor, Mich., USA) and z-VAD-fmk was obtained from Sigma (St. Louis, Mo., USA). For in vitro studies, drugs at various concentrations were dissolved in dimethyl sulfoxide (DMSO), and added to cells in Dulbecco's modified Eagle's medium (DMEM) or Roswell Park Memorial Institute (RPMI) containing 5% fetal bovine serum (FBS).
(§2) The Sk-Hep1, PLC/PRF/5 (PLC) and Hep3B cell lines were obtained from American Type Culture Collection (ATCC; Manassas, Va., USA). The Huh-7 HCC cell line was obtained from the Health Science Research Resources Bank (HSRRB; Osaka, Japan; JCRB0403). Cells were maintained in DMEM supplemented with 10% FBS in a 37° C. humidified incubator in an atmosphere of 5% CO^2 in air.

NCI-1703 = assay: cell viability of NCI-1703 cells, 1 and 10 uM of each erlotinib derivative, and IC50; conditions: Homo sapiens; for IC50: cell viability
Experimental: [Worded in the source for another cell line; this cell line is reported under the same test.] as §1, §2

H520 = assay: cell viability of H520 cells, 1 and 10 uM; conditions: Homo sapiens, NCI-H520
Experimental: [Worded in the source for another cell line; this cell line is reported under the same test.] as §1, §2

SW900 = assay: cell viability of SW900 cells, 1 and 10 uM; conditions: Homo sapiens
Experimental: [Worded in the source for another cell line; this cell line is reported under the same test.] as §1, §2

H358 = assay: cell viability of H358 cells, 1 and 10 uM; conditions: Homo sapiens, NCI-H358
Experimental: [Worded in the source for another cell line; this cell line is reported under the same test.] as §1, §2

A549 = assay: cell viability of A549 cells, 1 and 10 uM; conditions: Homo sapiens
Experimental: [Worded in the source for another cell line; this cell line is reported under the same test.] as §1, §2

NCI-H226 = assay: cell viability of NCI-H226 cells, 1 and 10 uM; conditions: Homo sapiens
Experimental: [Worded in the source for another cell line; this cell line is reported under the same test.] as §1, §2

Structure (SMILES)	viability at 1 µM (H2170)	viability at 10 µM (H2170)	viability at 1 µM (NCI-1703)	viability at 10 µM (NCI-1703)	viability at 1 µM (H520)	viability at 10 µM (H520)	viability at 1 µM (SW900)	viability at 1 µM (H358)	viability at 10 µM (H358)	viability at 1 µM (A549)	viability at 10 µM (A549)	viability at 1 µM (NCI-H226)	viability at 10 µM (NCI-H226)	viability at 10 µM (SW900)	IC50 (NCI-1703)
FC(F)(F)c1cccc(Nc2nc3ccccc3nc2Nc2cccc(C(F)(F)F)c2)c1 [TD60, N^2,N^3-bis(3-(trifluoromethyl)phenyl)quinoxaline-2,3-diamine]	72.3 ± 0.89%	0.41 ± 0.65%	51.9 ± 2.9%	26.1 ± 0.8%	21.8 ± 1.52%	0.36 ± 0.18%	19.3 ± 6.18%	55.3 ± 1.9%	18.1 ± 1.3%	91.3 ± 4%	21.8 ± 1.4%	92.5 ± 1.7%	15.9 ± 1%	–	–
Cc1cc(Nc2nc3ccc([N+](=O)[O-])cc3nc2Nc2ccc(O)cc2)n[nH]1 [TD628, 4-(2-(5-methyl-1H-pyrazol-3-ylamino)-6-nitroquinoxalin-3-ylamino)phenol]	–	–	147 ± 4.5%	–	–	–	–	140 ± 7.3%	–	–	–	152 ± 1.7%	–	–	–
COc1ccc(Nc2nc3ccc([N+](=O)[O-])cc3nc2Nc2ccc(C(F)(F)F)cc2)cc1 [TD626, N^3-(4-(trifluoromethyl)phenyl)-N^2-(4-methoxyphenyl)-6-nitroquinoxaline-2,3-diamine]	–	–	111 ± 1.3%	–	–	–	–	24.3 ± 3.6%	–	40.4 ± 0.8%	–	39 ± 2.2%	–	–	–
COc1ccc(Nc2nc3ccc([N+](=O)[O-])cc3nc2Nc2ccc(F)cc2)cc1 [TD631, N^3-(4-fluorophenyl)-N^2-(4-methoxyphenyl)-6-nitroquinoxaline-2,3-diamine]	–	–	42.5 ± 2.8%	–	–	–	–	40.4 ± 1.9%	–	58.9 ± 3.1%	–	35.8 ± 6.9%	–	–	–
N#CCc1ccc(Nc2nc3ccccc3nc2Nc2ccc(CC#N)cc2)cc1 [TD62, 2,2′-((quinoxaline-2,3-diylbis(azanediyl))bis(4,1-phenylene))diacetonitrile]	92.5 ± 1.41%	85.3 ± 4.56%	112 ± 3.6%	65.2 ± 0.6%	103 ± 1.7%	100 ± 2.46%	128 ± 1.8%	121 ± 2.2%	97.4 ± 8.1%	166 ± 23.1%	120 ± 29%	86 ± 2%	90.1 ± 8.2%	128 ± 6.18%	–
COc1ccc(Nc2nc3ccc([N+](=O)[O-])cc3nc2Nc2ccc(OC)cc2)cc1 [TD602, N^2,N^3-bis(4-methoxyphenyl)-6-nitroquinoxaline-2,3-diamine]	112 ± 3.97%	7.14 ± 4.42%	42 ± 1.1%	9.8%	104 ± 2.31%	0.89 ± 0.41%	120 ± 5.8%	58.3 ± 9.2%	12 ± 0.5%	47.4 ± 2.4%	10 ± 0.8%	98.1 ± 5.9%	8.1 ± 0.4%	2.05 ± 2.45%	–
CCc1cccc(Nc2nc3ccccc3nc2Nc2cccc(CC)c2)c1 [TD59, N^2,N^3-bis(3-ethylphenyl)quinoxaline-2,3-diamine]	88.4 ± 2.01%	8.96 ± 1.43%	114 ± 7.4%	26.4 ± 0.7%	88.3 ± 1.5%	0.41 ± 0.32%	110 ± 1.8%	117 ± 12.1%	19 ± 1.5%	164.6 ± 0.1%	24.1 ± 3.9%	122 ± 2.6%	32.5 ± 2.5%	–	–
O=[N+]([O-])c1ccc2nc(Nc3cccc(O)c3)c(Nc3cccc(O)c3)nc2c1 [TD613, 3-(2-(3-hydroxyphenylamino)-6-nitroquinoxalin-3-ylamino)phenol]	108 ± 1.99%	11.6 ± 1.38%	86 ± 0.5%	24.8 ± 2%	99.45 ± 0.5%	18.8 ± 0.22%	116 ± 7.2%	69.9 ± 60.7%	12 ± 0.5%	105 ± 3.4%	9.5 ± 0.7%	75.5 ± 7.9%	7 ± 0.3%	80.9 ± 3.8%	–
NS(=O)(=O)c1ccc(Nc2nc3ccc([N+](=O)[O-])cc3nc2Nc2ccc(S(N)(=O)=O)cc2)cc1 [TD629, N^2,N^3-bis(4-phenylsulfonamide)-6-nitroquinoxaline-2,3-diamine]	–	–	132.8 ± 1%	–	–	–	–	113 ± 3.6%	–	118 ± 1.2%	–	140 ± 1.6%	–	–	–
O=[N+]([O-])c1ccc2nc(Nc3ccc(F)cc3)c(Nc3ccc(F)cc3)nc2c1 [TD620, N^2,N^3-bis(4-fluorophenyl)-6-nitroquinoxaline-2,3-diamine]	–	–	26.2 ± 0.6%	21 ± 1.7%	–	–	–	24.2 ± 1.4%	12.6 ± 0.7%	48.7 ± 8.4%	7.8 ± 0.4%	132 ± 5%	17.9 ± 0.6%	–	300 nM
C#Cc1cccc(Nc2nc3cc([N+](=O)[O-])ccc3nc2Nc2ccc(O)cc2C)c1 [TD625, 4-(2-(3-ethynylphenylamino)-7-nitroquinoxalin-3-ylamino)-3-methylphenol]	–	–	224 ± 7%	–	–	–	–	92.6 ± 7.4%	–	73.7 ± 3%	–	115 ± 7.2%	–	–	–
c1ccc(CNc2nc3ccccc3nc2NCc2ccccc2)cc1 [TD54, N^2,N^3-dibenzylquinoxaline-2,3-diamine]	100 ± 4.93%	79.1 ± 7.69%	127 ± 2%	96.7 ± 4.2%	118 ± 3%	102 ± 1.46%	125 ± 27%	–	–	–	–	120 ± 4.9%	110.9 ± 0.8%	126 ± 10.6%	–
COC(=O)c1ccc2nc(Nc3ccc(OC(F)(F)F)cc3)c(Nc3ccc(OC(F)(F)F)cc3)nc2c1 [TD94, methyl 2,3-bis((4-(trifluoromethoxy)phenyl)amino)quinoxaline-6-carboxylate]	–	–	29.9 ± 6.8%	19.5 ± 1.1%	–	–	–	13 ± 0.2%	15.7 ± 5.9%	49 ± 6.5%	10.8 ± 0.9%	32.1 ± 2.7%	8 ± 0.1%	–	100 nM
O=[N+]([O-])c1ccc2nc(Nc3ccc(Cl)c(F)c3)c(Nc3ccc(Cl)c(F)c3)nc2c1 [TD624, N^2,N^3-bis(4-chloro-3-fluorophenyl)-6-nitroquinoxaline-2,3-diamine]	–	–	90.8 ± 4.8%	–	–	–	–	11.9 ± 1%	–	14.3 ± 3.6%	–	15.7 ± 0.8%	–	–	–
Clc1cccc(Nc2nc3ccccc3nc2Nc2cccc(Cl)c2)c1 [TD56, N^2,N^3-bis(3-chlorophenyl)quinoxaline-2,3-diamine]	95 ± 0.91%	32.5 ± 14.1%	49.9 ± 4.7%	28.8 ± 2.3%	98.4 ± 6.37%	4.76 ± 0.24%	118 ± 5.41%	–	–	–	–	115.4 ± 0.8%	19 ± 2%	1.46 ± 3.6%	–
Cc1ccc(F)c(Nc2nc3ccccc3nc2Nc2cc(C)ccc2F)c1 [TD58, N^2,N^3-bis(2-fluoro-5-methylphenyl)quinoxaline-2,3-diamine]	92.8 ± 2.03%	83 ± 3.41%	127 ± 2.9%	98.9 ± 1.1%	96.2 ± 1.22%	95.6 ± 4.66%	111 ± 1.54%	–	–	–	–	123 ± 3.6%	74.9 ± 1.5%	91.8 ± 9.78%	–

From patent US10189795B2, “Aryl amine substituted quinoxaline used as anticancer drugs” (priority 2014, dated 2019)
